Measured values reported in US8937072B2, “Substituted cyanoaniline compounds, preparation and use thereof” (Sinochem Corporation, priority 2011, dated 2015).

Legend:
[1] = tested on: wheat powdery mildew; test: Protectant activity in vivo (whole plant) against wheat powdery mildew
Procedure: The method is as followed: The whole plant is used in this test. The compound is dissolved in a proper solvent to get mother solution. The proper solvent is selected from acetone, methanol, DMF and so on according to their dissolving capability to the sample. The volume rate of solvent and testing solution (v/v) is equal to or less than 5%. The mother solution is diluted with water containing 0.1% tween-80 to get the testing solution whose concentration is designed. The testing solution is sprayed to the host plant by a special plant sprayer. The plant is inoculated with fungus after 24 hours. According to the infecting characteristic of fungus, the plant is stored in a humidity chamber and then transferred into greenhouse after infection is finished. And the other plants are placed in greenhouse directly. The activity of compound is obtained by eyeballing after 7 days in common.

[2] = tested on: cucumber gray mold; test: Activity in vitro (96-well, High Through Put): inhibition rate against cucumber gray mold; assay type: cell-based
How it was run: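 Scored visually at 24 hours relative to control, the readout is pathogen germination or growth. Test solutions used acetone, methanol or DMF as solvent and were mixed with pathogen suspension in a sterile high-throughput format at constant temperature.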

[3] = tested on: corn rust; test: Protectant activity in vivo (whole plant) against corn rust
How it was run: (§1)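 Whole plants sprayed with test solution, water plus 0.1% Tween-80 and no more than 5% solvent, then inoculated with the pathogen after 24 h. Plants held in humidity chamber or directly in greenhouse depending on fungus. Disease control scored by eye at about 7 days.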

[4] = tested on: rice blast; test: microbe, parasite or virus in culture; assay type: cell-based; details: for the inhibition rate against rice blast (%) 0.03 mg/L: Table 21, 0.03 mg/L; for the inhibition rate against rice blast (%) 0.1 mg/L: Table 21, 0.1 mg/L; for the inhibition rate against rice blast (%) 0.3 mg/L: Table 21, 0.3 mg/L
[5] = tested on: cucumber downy mildew; test: Protectant activity in vivo (whole plant) against cucumber downy mildew
How it was run: as §1

N#Cc1cc([N+](=O)[O-])cc(Br)c1Nc1c(Cl)c(Cl)c(C#N)c(C#N)c1Cl [Compound A-42]
protectant activity against wheat powdery mildew in vivo ([1]; dose 100 mg/L): 80%
protectant activity against wheat powdery mildew in vivo ([1]; dose 400 mg/L): 98%

N#Cc1c(Cl)c(Cl)c(Nc2cc(Cl)c(C(F)(F)F)cc2Cl)c(C#N)c1Cl [Compound B-52]
the inhibition rate against cucumber gray mold (%) ([2]; 0.3 mg/L): 0%
the inhibition rate against cucumber gray mold (%) ([2]; 0.9 mg/L): 100%
the inhibition rate against cucumber gray mold (%) ([2]; 2.8 mg/L): 100%
the inhibition rate against cucumber gray mold (%) ([2]; 8.3 mg/L): 100%
protectant activity against wheat powdery mildew in vivo ([1]; dose 400 mg/L): 100%
the protectant activity (%) against corn rust ([3]; 6.25 mg/L): 70%
the protectant activity (%) against corn rust ([3]; 25 mg/L): 98%
the protectant activity (%) against corn rust ([3]; 100 mg/L): 100%
the protectant activity (%) against corn rust ([3]; 400 mg/L): 100%
protectant activity against corn rust in vivo ([3]; dose 100 mg/L): 100%
protectant activity against corn rust in vivo ([3]; dose 400 mg/L): 100%
the inhibition rate against rice blast (%) 0.03 mg/L [4]: 100%
the inhibition rate against rice blast (%) 0.1 mg/L [4]: 100%
the inhibition rate against rice blast (%) 0.3 mg/L [4]: 100%

Cc1cc([N+](=O)[O-])cc(Cl)c1Nc1c(Cl)c(Cl)c(C#N)c(Cl)c1C#N [Compound B-58]
the protectant activity (%) against cucumber downy mildew ([5]; 12.5 mg/L): 98%
the protectant activity (%) against cucumber downy mildew ([5]; 25 mg/L): 98%
the protectant activity (%) against cucumber downy mildew ([5]; 50 mg/L): 100%
the protectant activity (%) against cucumber downy mildew ([5]; 100 mg/L): 100%
protectant activity against cucumber downy mildew in vivo ([5]; dose 12.5 mg/L): 98%
protectant activity against cucumber downy mildew in vivo ([5]; dose 50 mg/L): 100%
protectant activity against cucumber downy mildew in vivo ([5]; dose 100 mg/L): 100%
protectant activity against cucumber downy mildew in vivo ([5]; dose 400 mg/L): 100%
the inhibition rate against cucumber gray mold (%) ([2]; 0.3 mg/L): 80%
the inhibition rate against cucumber gray mold (%) ([2]; 0.9 mg/L): 100%
the inhibition rate against cucumber gray mold (%) ([2]; 2.8 mg/L): 100%
the inhibition rate against cucumber gray mold (%) ([2]; 8.3 mg/L): 100%
inhibition rate against cucumber gray mold ([2]; in vitro, dose 0.3 mg/L): 80%
protectant activity against corn rust in vivo ([3]; dose 400 mg/L): 100%
the inhibition rate against rice blast (%) 0.03 mg/L [4]: 0%
the inhibition rate against rice blast (%) 0.1 mg/L [4]: 50%
the inhibition rate against rice blast (%) 0.3 mg/L [4]: 100%

COc1c(Cl)c(Nc2c(Cl)cc([N+](=O)[O-])cc2Cl)c(C#N)c(Cl)c1C#N [Compound B-74]
the protectant activity (%) against cucumber downy mildew ([5]; 25 mg/L): 80%
the protectant activity (%) against cucumber downy mildew ([5]; 50 mg/L): 98%
the protectant activity (%) against cucumber downy mildew ([5]; 100 mg/L): 100%
protectant activity against cucumber downy mildew in vivo ([5]; dose 50 mg/L): 98%
protectant activity against cucumber downy mildew in vivo ([5]; dose 100 mg/L): 100%
protectant activity against cucumber downy mildew in vivo ([5]; dose 400 mg/L): 100%
the inhibition rate against cucumber gray mold (%) ([2]; 0.9 mg/L): 80%
the inhibition rate against cucumber gray mold (%) ([2]; 2.8 mg/L): 100%
the inhibition rate against cucumber gray mold (%) ([2]; 8.3 mg/L): 100%
the protectant activity (%) against corn rust ([3]; 6.25 mg/L): 40%
the protectant activity (%) against corn rust ([3]; 25 mg/L): 70%
the protectant activity (%) against corn rust ([3]; 100 mg/L): 95%
the protectant activity (%) against corn rust ([3]; 400 mg/L): 100%
protectant activity against corn rust in vivo ([3]; dose 400 mg/L): 100%
the inhibition rate against rice blast (%) 0.03 mg/L [4]: 0%
the inhibition rate against rice blast (%) 0.1 mg/L [4]: 50%
the inhibition rate against rice blast (%) 0.3 mg/L [4]: 100%

N#Cc1c(Cl)c(Cl)c(Nc2nc(Cl)c(Cl)c(Cl)c2Cl)c(C#N)c1Cl [Compound B-128b]
protectant activity against cucumber downy mildew in vivo ([5]; dose 100 mg/L): 100%
protectant activity against cucumber downy mildew in vivo ([5]; dose 400 mg/L): 100%
protectant activity against wheat powdery mildew in vivo ([1]; dose 400 mg/L): 80%
protectant activity against corn rust in vivo ([3]; dose 400 mg/L): 100%
the inhibition rate against rice blast (%) 0.03 mg/L [4]: 80%
the inhibition rate against rice blast (%) 0.1 mg/L [4]: 80%
the inhibition rate against rice blast (%) 0.3 mg/L [4]: 100%

N#Cc1c(Cl)c(Cl)c(C#N)c(Nc2c(Cl)cc(C(F)(F)F)cc2Cl)c1Cl [Compound C-50]
protectant activity against wheat powdery mildew in vivo ([1]; dose 400 mg/L): 100%
protectant activity against corn rust in vivo ([3]; dose 400 mg/L): 100%
the inhibition rate against rice blast (%) 0.03 mg/L [4]: 100%
the inhibition rate against rice blast (%) 0.1 mg/L [4]: 100%
the inhibition rate against rice blast (%) 0.3 mg/L [4]: 100%

N#Cc1c(F)c(F)c(C#N)c(Nc2ccc(C(F)(F)F)cc2Cl)c1F [Compound C-82]
protectant activity against cucumber downy mildew in vivo ([5]; dose 400 mg/L): 100%
protectant activity against wheat powdery mildew in vivo ([1]; dose 400 mg/L): 100%
